Test results taken from patent US7951829B2, “Benzimidazole modulators of VR1” (Janssen Pharmaceutica NV, priority 2006, dated 2011).

Target: T1, hVR1 (Homo sapiens, UniProt Q8NER1)
T1 construct: expressed in transfected cells; host or cells: HEK293
Test: Human VR1 (hVR1) Functional Assay (FLIPR intracellular calcium, capsaicin challenge)
Type: cell-based
Settings: capsaicin 0.030 μM, HEK293 cells expressing hVR1; for inhibition at 1 µM: test concentration 1 μM

T1 sequence (Q8NER1 whole entry): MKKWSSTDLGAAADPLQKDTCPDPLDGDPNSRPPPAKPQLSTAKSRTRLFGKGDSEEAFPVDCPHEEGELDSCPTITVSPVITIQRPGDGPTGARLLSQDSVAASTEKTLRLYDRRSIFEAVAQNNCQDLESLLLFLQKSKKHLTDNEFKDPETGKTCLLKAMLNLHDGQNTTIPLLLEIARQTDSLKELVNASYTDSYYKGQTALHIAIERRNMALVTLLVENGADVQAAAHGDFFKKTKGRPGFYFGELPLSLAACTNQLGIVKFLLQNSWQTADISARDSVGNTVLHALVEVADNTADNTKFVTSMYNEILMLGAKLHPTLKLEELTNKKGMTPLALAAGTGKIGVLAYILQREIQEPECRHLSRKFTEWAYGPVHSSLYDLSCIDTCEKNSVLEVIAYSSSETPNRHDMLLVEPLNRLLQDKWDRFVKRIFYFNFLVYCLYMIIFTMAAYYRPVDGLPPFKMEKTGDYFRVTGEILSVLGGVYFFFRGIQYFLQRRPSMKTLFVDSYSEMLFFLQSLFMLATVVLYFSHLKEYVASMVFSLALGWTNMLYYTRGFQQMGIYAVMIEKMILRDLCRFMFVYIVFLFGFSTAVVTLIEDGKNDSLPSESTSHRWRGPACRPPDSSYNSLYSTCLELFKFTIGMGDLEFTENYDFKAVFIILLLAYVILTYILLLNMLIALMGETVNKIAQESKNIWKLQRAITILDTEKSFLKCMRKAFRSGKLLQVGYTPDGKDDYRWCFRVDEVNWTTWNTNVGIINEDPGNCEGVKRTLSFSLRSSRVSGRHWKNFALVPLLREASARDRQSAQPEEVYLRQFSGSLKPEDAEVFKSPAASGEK

Compound | IC50 | inhibition at 1 µM | inhibition at 5 µM (test concentration 5 μM (footnote 1))
NS(=O)(=O)c1ccccc1-c1ccc2[nH]c(/C=C/c3c(F)cccc3Cl)nc2c1 [Cpd 438, (E)-2-{2-[2-(2-chloro-6-fluoro-phenyl)-vinyl]-1H-benzimidazol-5-yl}-benzenesulfonamide] | 71 nM | 96% | –
O=C(Nc1ccccc1-c1ccc2[nH]c(/C=C/c3ccc(C(F)(F)F)cc3)nc2c1)C(F)(F)F [Cpd 458, (E)-2,2,2-trifluoro-N-(2-{2-[2-(4-trifluoromethyl-phenyl)-vinyl]-1H-benzimidazol-5-yl}-phenyl)-acetamide] | – | 15% | –
CS(=O)(=O)Nc1ccccc1-c1ccc2[nH]c(/C=C/c3cccc(C(F)(F)F)c3)nc2c1 [Cpd 113, (E)-N-(2-{2-[2-(3-trifluoromethyl-phenyl)-vinyl]-1H-benzimidazol-5-yl}-phenyl)-methanesulfonamide] | – | 48% | –
CC(C)(O)c1ccccc1-c1ccc2[nH]c(C3CC3c3ccc(C(F)(F)F)cc3)nc2c1 (stereo not shown) [Cpd 471, 2-(2-{2-[2-(4-trifluoromethyl-phenyl)-cyclopropyl]-1H-benzimidazol-5-yl}-phenyl)-propan-2-ol] | 10 nM | 100% | –
CS(=O)(=O)Nc1ccccc1-c1ccc2[nH]c(/C=C/c3ccc4ccccc4c3)nc2c1 [Cpd 415, (E)-N-{2-[2-(2-naphthalen-2-yl-vinyl)-1H-benzimidazol-5-yl]-phenyl}-methanesulfonamide] | 150 nM | 95% | –
FC(F)(F)c1ccc(/C=C/c2nc3cc(-c4ccccc4C(F)(F)F)ccc3[nH]2)cc1 [Cpd 487, (E)-5-(2-trifluoromethyl-phenyl)-2-[2-(4-trifluoromethyl-phenyl)-vinyl]-1H-benzimidazole] | – | 20% | –
CC(C)(O)c1ccccc1-c1ccc2[nH]c([C@H]3C[C@@H]3c3ccc(C(F)(F)F)cc3)nc2c1 [Cpd 503, 2-(2-{2-[(1S,2S)-2-(4-trifluoromethyl-phenyl)-cyclopropyl]-1H-benzimidazol-5-yl}-phenyl)-propan-2-ol] | 10 nM | 93% | –
NS(=O)(=O)c1ccccc1-c1ccc2[nH]c(/C=C/c3cc(F)c(F)cc3F)nc2c1 [Cpd 371, (E)-2-{2-[2-(2,4,5-trifluoro-phenyl)-vinyl]-1H-benzimidazol-5-yl}-benzenesulfonamide] | 18 nM | 98% | –
CNS(=O)(=O)c1ccccc1-c1ccc2[nH]c(/C=C/c3ccc(F)cc3F)nc2c1 [Cpd 349, (E)-2-{2-[2-(2,4-difluoro-phenyl)-vinyl]-1H-benzimidazol-5-yl}-N-methyl-benzenesulfonamide] | 59 nM | 99% | –
CC(C)(C)OC(=O)Nc1ccccc1-c1ccc2[nH]c(/C=C/c3ccc(C(C)(C)C)cc3)nc2c1 [Cpd 10, (E)-(2-{2-[2-(4-tert-butyl-phenyl)-vinyl]-1H-benzimidazol-5-yl}-phenyl)-carbamic acid tert-butyl ester] | 280 nM | 94% | –
NS(=O)(=O)c1ccccc1-c1ccc2[nH]c(C3CC3c3ccc(C(F)(F)F)cc3)nc2c1 (stereo not shown) [Cpd 190, 2-{2-[2-(4-trifluoromethyl-phenyl)-cyclopropyl]-1H-benzimidazol-5-yl}-benzenesulfonamide] | 38 nM | 94% | –
CC(=O)Nc1ccccc1-c1ccc2[nH]c(/C=C/c3ccc(S(=O)(=O)C(F)(F)F)cc3)nc2c1 [Cpd 43, (E)-N-(2-{2-[2-(4-trifluoromethanesulfonyl-phenyl)-vinyl]-1H-benzimidazol-5-yl}-phenyl)-acetamide] | 890 nM | 58% | –
CC(O)c1ccccc1-c1ccc2[nH]c(/C=C/c3ccc(S(=O)(=O)C(F)(F)F)cc3)nc2c1 (stereo not shown) [Cpd 45, (E)-1-(2-{2-[2-(4-trifluoromethanesulfonyl-phenyl)-vinyl]-1H-benzimidazol-5-yl}-phenyl)-ethanol] | 16 nM | 100% | –
NS(=O)(=O)c1ccc(F)cc1-c1ccc2[nH]c(/C=C/c3ccc(C(F)(F)F)cc3)nc2c1 [Cpd 441, (E)-4-fluoro-2-{2-[2-(4-trifluoromethyl-phenyl)-vinyl]-1H-benzimidazol-5-yl}-benzenesulfonamide] | – | 40% | –
O=S(=O)(c1ccc(/C=C/c2nc3cc(-c4ccccc4CO)ccc3[nH]2)cc1)C(F)(F)F [Cpd 42, (E)-(2-{2-[2-(4-trifluoromethanesulfonyl-phenyl)-vinyl]-1H-benzimidazol-5-yl}-phenyl)-methanol] | 22 nM | 100% | –
CNS(=O)(=O)c1ccccc1-c1ccc2[nH]c(/C=C/c3ccccc3C(F)(F)F)nc2c1 [Cpd 343, (E)-N-methyl-2-{2-[2-(2-trifluoromethyl-phenyl)-vinyl]-1H-benzimidazol-5-yl}-benzenesulfonamide] | 243 nM | 82% | –
CC(C)(C)c1ccc(CCc2nc3cc(-c4ccc(O)cc4)ccc3[nH]2)cc1 [Cpd 34, 4-{2-[2-(4-tert-butyl-phenyl)-ethyl]-1H-benzimidazol-5-yl}-phenol] | – | – | 75%
CS(=O)(=O)c1cc(Cl)ccc1/C=C/c1nc2cc(-c3ccccc3S(N)(=O)=O)ccc2[nH]1 [Cpd 375, (E)-2-{2-[2-(4-chloro-2-methanesulfonyl-phenyl)-vinyl]-1H-benzimidazol-5-yl}-benzenesulfonamide] | 139 nM | 97% | –
CCOC(=O)c1ccccc1-c1ccc2[nH]c(/C=C/c3ccc(C(F)(F)F)cc3)nc2c1 [Cpd 466, (E)-2-{2-[2-(4-trifluoromethyl-phenyl)-vinyl]-1H-benzimidazol-5-yl}-benzoic acid ethyl ester] | 71 nM | 98% | –
NS(=O)(=O)c1ccccc1-c1ccc2[nH]c(CCc3ccc(F)cc3F)nc2c1 [Cpd 392, 2-{2-[2-(2,4-difluoro-phenyl)-ethyl]-1H-benzimidazol-5-yl}-benzenesulfonamide] | 10 nM | 97% | –

The remaining lines, values ahead:

IC50 | inhibition at 1 µM | inhibition at 5 µM (test concentration 5 μM (footnote 1)) | Compound
95 nM | 87% | – | OCc1ccccc1-c1cc2nc(/C=C/c3ccc(C(F)(F)F)cc3)[nH]c2cc1C(F)(F)F [Cpd 58, (E)-(2-{6-trifluoromethyl-2-[2-(4-trifluoromethyl-phenyl)-vinyl]-1H-benzimidazol-5-yl}-phenyl)-methanol]
> 500 nM | – | – | NCc1ccccc1-c1ccc2[nH]c(CCc3ccc(C(F)(F)F)cc3)nc2c1 [Cpd 486, 2-{2-[2-(4-trifluoromethyl-phenyl)-ethyl]-1H-benzimidazol-5-yl}-benzylamine]
– | 27% | – | CNS(=O)(=O)c1ccccc1-c1ccc2[nH]c(/C=C/c3ccc(C(=O)NC(C)C)cc3)nc2c1 [Cpd 450, (E)-N-isopropyl-4-{2-[5-(2-methylsulfamoyl-phenyl)-1H-benzimidazol-2-yl]-vinyl}-benzamide]
14 nM | 100% | – | CC(C)(C)c1ccc(/C=C/c2nc3cc(-c4ccccc4C(C)(C)O)ccc3[nH]2)cc1 [Cpd 463, (E)-2-(2-{2-[2-(4-tert-butyl-phenyl)-vinyl]-1H-benzimidazol-5-yl}-phenyl)-propan-2-ol]
2 nM | 96% | – | CC(C)(O)c1ccccc1-c1ccc2[nH]c(C#Cc3ccccc3)nc2c1 [Cpd 489, 2-[2-(2-phenylethynyl-1H-benzimidazol-5-yl)-phenyl]-propan-2-ol]
19 nM | 97% | – | CS(=O)(=O)c1ccccc1-c1ccc2[nH]c(C3CC3c3ccc(C(F)(F)F)cc3)nc2c1 (stereo not shown) [Cpd 500, 5-(2-methanesulfonyl-phenyl)-2-[2-(4-trifluoromethyl-phenyl)-cyclopropyl]-1H-benzimidazole]
28 nM | 98% | – | NS(=O)(=O)c1ccc(C(F)(F)F)cc1-c1ccc2[nH]c(/C=C/c3ccc(C(F)(F)F)cc3)nc2c1 [Cpd 444, (E)-4-trifluoromethyl-2-{2-[2-(4-trifluoromethyl-phenyl)-vinyl]-1H-benzimidazol-5-yl}-benzenesulfonamide]
182 nM | 86% | – | CS(=O)(=O)Nc1ccccc1-c1ccc2[nH]c(C3CC3c3ccc(C(F)(F)F)cc3)nc2c1 (stereo not shown) [Cpd 467, N-(2-{2-[2-(4-trifluoromethyl-phenyl)-cyclopropyl]-1H-benzimidazol-5-yl}-phenyl)-methanesulfonamide]
12 nM | 98% | – | NS(=O)(=O)c1ccccc1-c1ccc2[nH]c(/C=C/c3ccc(Br)cc3)nc2c1 [Cpd 363, (E)-2-{2-[2-(4-bromo-phenyl)-vinyl]-1H-benzimidazol-5-yl}-benzenesulfonamide]
3 nM | 97% | – | CN(C)S(=O)(=O)c1ccccc1-c1ccc2[nH]c(/C=C/c3ccc(C(F)(F)F)cc3)nc2c1 [Cpd 398, (E)-N,N-dimethyl-2-{2-[2-(4-trifluoromethyl-phenyl)-vinyl]-1H-benzimidazol-5-yl}-benzenesulfonamide]
17 nM | 100% | – | CNS(=O)(=O)c1ccccc1-c1ccc2[nH]c(/C=C/c3ccc(C(F)(F)F)cc3C(F)(F)F)nc2c1 [Cpd 455, (E)-2-{2-[2-(2,4-bis-trifluoromethyl-phenyl)-vinyl]-1H-benzimidazol-5-yl}-N-methyl-benzenesulfonamide]
10 nM | 98% | – | NS(=O)(=O)c1ccccc1-c1ccc2[nH]c(CCc3ccc(F)c(F)c3)nc2c1 [Cpd 393, 2-{2-[2-(3,4-difluoro-phenyl)-ethyl]-1H-benzimidazol-5-yl}-benzenesulfonamide]
26 nM | 99% | – | NS(=O)(=O)c1ccccc1-c1ccc2[nH]c(C#Cc3ccccc3)nc2c1 [Cpd 490, 2-(2-phenylethynyl-1H-benzimidazol-5-yl)-benzenesulfonamide]
14 nM | 101% | – | CNS(=O)(=O)c1ccccc1-c1ccc2[nH]c(/C=C/c3cc(F)cc(C(F)(F)F)c3)nc2c1 [Cpd 322, (E)-2-{2-[2-(3-fluoro-5-trifluoromethyl-phenyl)-vinyl]-1H-benzimidazol-5-yl}-N-methyl-benzenesulfonamide]
